ChEMBL document CHEMBL1133237, “Enhanced binding of aminoglycoside dimers to a "dimerized" A-site 16S rRNA construct” (Bioorg Med Chem Lett, 2000)
pKd: −log10 of the molar value.

Legend:
Nucleic Acid [1] = experiment: Dissociation constant towards 16S rRNA construct A; type: nucleic-acid assay
Nucleic Acid [2] = experiment: Dissociation constant towards 16S rRNA construct B; type: nucleic-acid assay

`NCC1O[C@H](O[C@H]2[C@@H](O)[C@H](O[C@H]3[C@H](O)[C@@H](N)C[C@@H](N)[C@@H]3O[C@H]3O[C@H](CN)[C@@H](O)[C@H](O)[C@H]3N)O[C@@H]2CSCCOCCSSCCOCCSC[C@H]2O[C@@H](O[C@H]3[C@H](O)[C@@H](N)C[C@@H](N)[C@@H]3O[C@H]3O[C@H](CN)[C@@H](O)[C@H](O)[C@H]3N)[C@H](O)[C@@H]2O[C@@H]2OC(CN)[C@H](O)[C@@H](O)[C@@H]2N)[C@H](N)[C@@H](O)[C@@H]1O` (stereo not given in full) showed a pKd (Nucleic Acid [1]) of 6.49 and a pKd (Nucleic Acid [2]) of 7.70.
For `NCC1O[C@H](O[C@H]2[C@@H](O)[C@H](O[C@H]3[C@H](O)[C@@H](N)C[C@@H](N)[C@@H]3O[C@H]3O[C@H](CN)[C@@H](O)[C@H](O)[C@H]3N)O[C@@H]2CSCCOCCSSCCOCCSC[C@H]2O[C@H](O[C@@H]3[C@@H](O)[C@H](O[C@H]4O[C@H](CN)[C@@H](O)C[C@H]4N)[C@@H](N)C[C@H]3N)[C@H](O)[C@@H](N)[C@@H]2O)[C@H](N)[C@@H](O)[C@@H]1O` (stereo not given in full), the pKd (Nucleic Acid [1]) was 6.39 and the pKd (Nucleic Acid [2]) was 6.54.
In the case of `NC[C@H]1O[C@H](O[C@H]2[C@H](O)[C@@H](O[C@H]3O[C@H](CO)[C@@H](O)[C@H](N)[C@H]3O)[C@H](N)C[C@@H]2N)[C@H](N)C[C@@H]1O` [TOBRAMYCIN], the pKd (Nucleic Acid [1]) was 5.68 and the pKd (Nucleic Acid [2]) was 5.77.
With `NC[C@@H]1O[C@H](O[C@H]2[C@@H](O)[C@H](O[C@@H]3[C@@H](O)[C@H](N)C[C@H](N)[C@H]3O[C@H]3O[C@H](CN)[C@@H](O)[C@H](O)[C@H]3N)O[C@@H]2CO)[C@H](N)[C@@H](O)[C@@H]1O` [FRAMYCETIN] the pKd (Nucleic Acid [1]) was 6.36 and the pKd (Nucleic Acid [2]) was 6.42.
Molecule `NC[C@H]1O[C@H](O[C@H]2[C@H](O)[C@@H](O[C@H]3O[C@H](CSCCOCCSSCCOCCSC[C@H]4O[C@H](O[C@@H]5[C@@H](O)[C@H](O[C@H]6O[C@H](CN)[C@@H](O)C[C@H]6N)[C@@H](N)C[C@H]5N)[C@H](O)[C@@H](N)[C@@H]4O)[C@@H](O)[C@H](N)[C@H]3O)[C@H](N)C[C@@H]2N)[C@H](N)C[C@@H]1O` [Tobramycin-Tobramycin] has a pKd (Nucleic Acid [1]) of 5.75 and a pKd (Nucleic Acid [2]) of 5.74.
